Assay results reported in patent publication US20230372263A1, “METHODS AND COMPOSITIONS FOR TREATING AMYOTROPHIC LATERAL SCLEROSIS” (Amylyx Pharmaceuticals, Inc., priority 2022, published 2023).
Where two headings read alike, the source gives them in different places.

Tests used:
[1] = Phase I single dose oral AMX0035 fasted/fed plasma pharmacokinetics and food effect (Protocol A35-002); assay type: in vivo, human; details: for Frel AUC(0-inf) / Frel AUC(0-last) / Frel Cmax: fed relative to fasted
How it was run: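 Healthy adults (n=14) received a single oral dose in the morning on two occasions, fasted ≥10 h or 30 min after starting a high-fat breakfast. About 21 venous K2EDTA samples per subject were taken over 24 h and processed to plasma. PK parameters were calculated from actual elapsed times after dosing.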

[2] = Population pharmacokinetic model and simulations of PB and PAA (healthy subjects and ALS patients); parameters: species or system human; details: for Cmax, Mean: from individual Bayesian (post hoc) parameter estimates; for Cmax, 2.5th percentile / Cmax, 97.5th percentile / Cmax, Geometric mean / Cmax, Median: post hoc Bayesian estimates; for V, volume of distribution of PAA: population PK
From the text: The order of administration with and without food was randomly assigned. […] Subjects were advised to take the drug before a meal. […] No inter-occasion variability (IOV) was included.

[3] = single dose AMX0035 fasted, Geometric Mean
[4] = single dose AMX0035 fasted, Max
[5] = single dose AMX0035 fasted, Median
[6] = single dose AMX0035 fasted, Min
[7] = single dose AMX0035 fed, Geometric Mean
[8] = single dose AMX0035 fed, Median

With `O=C(O)Cc1ccccc1` [PAA, phenylacetate] the T1/2 ([1]; Table 1: fasted, geometric mean (CV%), terminal half-life) was 48.8 min, the Tmax ([1]; Table 1: fasted, median (range)) was 150 min and the AUC(0-inf) ([1]; both sexes, human, in vivo, Table 1: fasted, geometric mean (CV%), read-out: AUC(0-inf)) was 83400 ng·h/mL. For the same compound, the half-life ([1]; both sexes, human, in vivo, Table 1: fasted, geometric mean (CV%), terminal half-life, read-out: T1/2 (converted)) was 48.6 min, the half-life ([1]; both sexes, human, in vivo, fasted, read-out: elimination half-lives (range)) was 41.4 to 57 min and the half-life ([1]; both sexes, human, in vivo, fed, read-out: elimination half-lives (range)) was 36 to 62.4 min. It also gave a Cmax ([1]; both sexes, human, in vivo, po, Table 1: single oral dose ALBRIOZA, healthy subjects, fasted, geometric mean (CV%), read-out: Cmax) of 26400 ng/mL, an AUC(0-inf) ([1]; both sexes, human, in vivo, po, single oral AMX0035, Fasted (N = 13), healthy subjects, PK analysis subset, read-out: AUC(0-inf), Adj Geo Mean) of 84800 ng·h/mL and an AUC(0-t) ([1]; both sexes, human, in vivo, po, single oral AMX0035, Fasted (N = 13), healthy subjects, PK analysis subset, read-out: AUC(0-last), Adj Geo Mean) of 83200 ng·h/mL. It also gave a Cmax ([1]; both sexes, human, in vivo, po, single oral AMX0035, Fasted (N = 13), healthy subjects, PK analysis subset, read-out: Cmax, Adj Geo Mean) of 26600 ng/mL, an AUC(0-inf) ([1]; both sexes, human, in vivo, po, single oral AMX0035, Fed (N = 13), healthy subjects, PK analysis subset, read-out: AUC(0-inf), Adj Geo Mean) of 59800 ng·h/mL and an AUC(0-t) ([1]; both sexes, human, in vivo, po, single oral AMX0035, Fed (N = 13), healthy subjects, PK analysis subset, read-out: AUC(0-last), Adj Geo Mean) of 58200 ng·h/mL. It also gave a Cmax ([1]; both sexes, human, in vivo, po, single oral AMX0035, Fed (N = 13), healthy subjects, PK analysis subset, read-out: Cmax, Adj Geo Mean) of 16100 ng/mL, a Cmax ([1]; both sexes, human, in vivo, single dose AMX0035, healthy subjects, fasting, read-out: mean Cmax) of 26400 ng/mL and an AUC(0-inf) ([1]; both sexes, human, in vivo, single dose AMX0035 fasted, Geometric Mean, read-out: AUC(0-inf)) of 83400 ng·h/mL. The AUC(0-t) ([1]; both sexes, human, in vivo, single dose AMX0035 fasted, Geometric Mean, read-out: AUC(0-last)) was 81800 ng·h/mL, the Cmax ([1]; both sexes, human, in vivo, single dose AMX0035 fasted, Geometric Mean, read-out: Cmax) was 26400 ng/mL and the half-life ([1]; both sexes, human, in vivo, single dose AMX0035 fasted, Geometric Mean, read-out: T1/2 (converted)) was 48.8 min. The AUC(0-inf) ([1]; both sexes, human, in vivo, single dose AMX0035 fasted, Median, read-out: AUC(0-inf)) was 80700 ng·h/mL, the AUC(0-t) ([1]; both sexes, human, in vivo, single dose AMX0035 fasted, Median, read-out: AUC(0-last)) was 79300 ng·h/mL and the Cmax ([1]; both sexes, human, in vivo, single dose AMX0035 fasted, Median, read-out: Cmax) was 27700 ng/mL. The half-life ([1]; both sexes, human, in vivo, single dose AMX0035 fasted, Median, read-out: T1/2 (converted)) was 50 min, the AUC(0-inf) ([1]; both sexes, human, in vivo, single dose AMX0035 fed, Geometric Mean, read-out: AUC(0-inf)) was 58300 ng·h/mL and the AUC(0-t) ([1]; both sexes, human, in vivo, single dose AMX0035 fed, Geometric Mean, read-out: AUC(0-last)) was 56700 ng·h/mL. The Cmax ([1]; both sexes, human, in vivo, single dose AMX0035 fed, Geometric Mean, read-out: Cmax) was 15900 ng/mL, the half-life ([1]; both sexes, human, in vivo, single dose AMX0035 fed, Geometric Mean, read-out: T1/2 (converted)) was 46.8 min and the AUC(0-inf) ([1]; both sexes, human, in vivo, single dose AMX0035 fed, Median, read-out: AUC(0-inf)) was 54500 ng·h/mL. For the same compound, the AUC(0-t) ([1]; both sexes, human, in vivo, single dose AMX0035 fed, Median, read-out: AUC(0-last)) was 53100 ng·h/mL, the Cmax ([1]; both sexes, human, in vivo, single dose AMX0035 fed, Median, read-out: Cmax) was 16000 ng/mL and the half-life ([1]; both sexes, human, in vivo, single dose AMX0035 fed, Median, read-out: T1/2 (converted)) was 47 min. For the same compound, the Tmax ([1]; both sexes, human, in vivo, non parametric analysis, PK analysis subset, Fasted, read-out: Tmax Median) was 150 min, the “peak exposure to metabolite as % of that for parent” value ([1]; fasted) was “approximately 14%” and the “time from which plasma concentrations were evident” value ([1]; fasted) was 0.25 h. For the same compound, the “total exposure to metabolite based on AUC(0-inf) as % of that for parent” value ([1]; fasted) was “approximately 35%”, the “peak exposure to metabolite as % of that for parent” value ([1]; fed) was “approximately 34%” and the “total exposure to metabolite based on AUC(0-inf) as % of that for parent” value ([1]; fed) was “approximately 48%”. For the same compound, the “Frel AUC(0-inf)” value ([1]; Geometric Mean) was 70.606%, the “Frel AUC(0-last)” value ([1]; Geometric Mean) was 70.024% and the “Frel Cmax” value ([1]; Geometric Mean) was 60.480%. For the same compound, the “Frel AUC(0-inf)” value ([1]; Max) was 91.45%, the “Frel AUC(0-last)” value ([1]; Max) was 91.27% and the “Frel Cmax” value ([1]; Max) was 86.29%. For the same compound, the “Frel AUC(0-inf)” value ([1]; Median) was 70.563%, the “Frel AUC(0-last)” value ([1]; Median) was 69.952% and the “Frel Cmax” value ([1]; Median) was 58.065%. For the same compound, the “Frel AUC(0-inf)” value ([1]; Min) was 58.16%, the “Frel AUC(0-last)” value ([1]; Min) was 57.31% and the “Frel Cmax” value ([1]; Min) was 45.73%. The “Tmax Median” value ([1]; non parametric analysis, PK analysis subset, Fed) was 150 min, the AUCextrap [1, 3] was 1.779% and the Lambda-z [1, 3] was 0.8527 h⁻¹. The “AUC(0-inf)” value [1, 4] was 142000 ng·h/mL, the “AUC(0-last)” value [1, 4] was 141000 ng·h/mL and the AUCextrap [1, 4] was 3.18%. It also gave a Lambda-z [1, 4] of 0.9999 h⁻¹, a T1/2 [1, 4] of 57 min and a Tmax [1, 4] of 210 min. For the same compound, the AUCextrap [1, 5] was 1.963%, the Lambda-z [1, 5] was 0.8310 h⁻¹ and the Tmax [1, 5] was 150 min. For the same compound, the “AUC(0-inf)” value [1, 6] was 45200 ng·h/mL, the “AUC(0-last)” value [1, 6] was 43800 ng·h/mL and the AUCextrap [1, 6] was 1.06%. For the same compound, the Lambda-z [1, 6] was 0.7287 h⁻¹, the T1/2 [1, 6] was 41.4 min and the Tmax [1, 6] was 90 min. The AUCextrap [1, 7] was 2.485%, the Lambda-z [1, 7] was 0.8886 h⁻¹ and the “AUC(0-inf)” value ([1]; single dose AMX0035 fed, Max) was 130000 ng·h/mL. For the same compound, the “AUC(0-last)” value ([1]; single dose AMX0035 fed, Max) was 128000 ng·h/mL, the AUCextrap ([1]; single dose AMX0035 fed, Max) was 4.13% and the Lambda-z ([1]; single dose AMX0035 fed, Max) was 1.1486 h⁻¹. For the same compound, the T1/2 ([1]; single dose AMX0035 fed, Max) was 62.4 min, the Tmax ([1]; single dose AMX0035 fed, Max) was 270 min and the AUCextrap [1, 8] was 2.680%. For the same compound, the Lambda-z [1, 8] was 0.8899 h⁻¹, the Tmax [1, 8] was 150 min and the “AUC(0-inf)” value ([1]; single dose AMX0035 fed, Min) was 31900 ng·h/mL. For the same compound, the “AUC(0-last)” value ([1]; single dose AMX0035 fed, Min) was 30600 ng·h/mL, the AUCextrap ([1]; single dose AMX0035 fed, Min) was 1.26% and the Lambda-z ([1]; single dose AMX0035 fed, Min) was 0.6696 h⁻¹. For the same compound, the T1/2 ([1]; single dose AMX0035 fed, Min) was 36 min, the Tmax ([1]; single dose AMX0035 fed, Min) was 120 min and the “higher exposure in females compared to males” value ([1]; single oral dose, fed and fasted) was ~31%. For the same compound, the “Cmax, Mean” value ([2]; ALS patients, Fasting) was 24100 ng/mL, the “Cmax, 2.5th percentile” value ([2]; ALS patients, Fasting) was 10100 ng/mL and the “Cmax, 97.5th percentile” value ([2]; ALS patients, Fasting) was 44200 ng/mL. The “Cmax, Geometric mean” value ([2]; ALS patients, Fasting) was 22300 ng/mL, the “Cmax, Median” value ([2]; ALS patients, Fasting) was 23800 ng/mL and the “Cmax, Mean” value ([2]; ALS patients, Fed) was 16600 ng/mL. For the same compound, the “Cmax, 2.5th percentile” value ([2]; ALS patients, Fed) was 8160 ng/mL, the “Cmax, 97.5th percentile” value ([2]; ALS patients, Fed) was 25300 ng/mL and the “Cmax, Geometric mean” value ([2]; ALS patients, Fed) was 15600 ng/mL. For the same compound, the “Cmax, Median” value ([2]; ALS patients, Fed) was 16900 ng/mL, the “estimated steady-state mean Cmax” value ([2]; ALS patients, based on population PK) was 24100 ng/mL and the “V, volume of distribution of PAA” value ([2]; Bootstrap Median) was 56.1 L. For the same compound, the “V, volume of distribution of PAA” value ([2]; Final Model mean estimate) was 56.3 L.
